Assay results as given in ChEMBL document CHEMBL1201862, “PubChem BioAssay data set” (2004).
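The compound was tested at five concentrations on cells cultured in 96-well plates, with a 48-hour exposure period. At the GI50, growth is halved.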 Calls of active or inactive are those of the source. Cut-off read from the data, not from the text of the source: active = GI50 up to about 1.1 µM and inactive = higher.

Tests used:
Experiment in all cases: NCI tumour cell line growth inhibition, 48 h
[1] = system: DLD-1
[2] = system: DMS-114
[3] = system: DMS-273
[4] = system: HOP-18
[5] = system: KM-20L2
[6] = system: LXFL 529
[7] = system: RXF 631
[8] = system: SNB-78
[9] = system: XF498

Measured: GI50

NNC(=O)N/N=C1/C(=O)N(c2ccc(Cl)c(Cl)c2)C(=O)C(=O)C1c1nc2ccccc2o1 (centres undefined)
inactive: [1] > 100 µM | [2] > 100 µM | [3] > 100 µM | [4] > 100 µM | [5] > 100 µM | [6] > 100 µM | [7] 76.4 µM | [8] > 100 µM

Cc1oc2c(C)c3oc(=O)cc(C)c3cc2c1CN1C(=O)C2OCCOCCOCCOCCOCCO[C@H]2C1=O (some centres undefined)
inactive: [1] > 100 µM | [2] > 100 µM | [3] > 100 µM | [4] > 100 µM | [5] > 100 µM | [6] > 100 µM | [7] 26.7 µM | [8] > 100 µM

NC(=S)N/N=C(\CC1OC(=O)c2ccccc21)c1ccc(Cl)cc1 (centres undefined)
inactive: [1] 41.3 µM | [2] 24.6 µM | [3] 41 µM | [5] 47 µM | [6] 28.8 µM | [7] 24 µM | [8] 36.9 µM | [9] 47 µM

O=S(=O)(c1ccccc1)c1nccs1
inactive: [1] > 100 µM | [2] > 100 µM | [3] > 100 µM | [4] > 100 µM | [5] > 100 µM | [6] > 100 µM | [8] > 100 µM | [9] > 100 µM

NS(=O)(=O)c1ccc(NC(=O)c2cccc3cc4ccccc4nc23)cc1
inactive: [1] 17.1 µM | [2] 97.7 µM | [3] 9.44 µM | [4] > 100 µM | [5] 12.6 µM | [6] 25 µM | [7] 29.2 µM | [8] > 100 µM | [9] 49.7 µM

C=C(C)C(=O)OC1C/C(CO)=C\C(O)C/C(C)=C/C2OC(=O)C(=C)C21 (centres undefined)
inactive: [2] 23.7 µM | [3] 27.5 µM | [4] 31.3 µM | [5] 30.3 µM | [6] 16.9 µM | [7] 18.4 µM | [8] 46.3 µM | [9] 15.2 µM

CNS(=O)(=O)NNS(=O)(=O)c1ccc(C)cc1
inactive: [1] > 100 µM | [2] > 100 µM | [5] > 100 µM

CC#N.O[C@@H]1CCCC[C@H]1O.O[C@@H]1CCCC[C@H]1O.[TeH2]
inactive: [1] 32.2 µM | [2] 44.7 µM | [3] 18.1 µM | [4] 23.3 µM | [5] 69.7 µM | [6] 37.7 µM | [7] 22.8 µM | [8] > 100 µM

CCCCCCCC(=O)OC(COC(=O)Cc1ccccc1)COC(=O)C(C)(C)C (centres undefined)
inactive: [1] > 100 µM | [2] > 100 µM | [3] > 100 µM | [4] > 100 µM | [5] > 100 µM | [6] 95.3 µM | [7] > 100 µM

Cc1cccc(C)c1NC(=O)CCCC(=O)CC(=O)/C=C/c1ccccc1
inactive: [1] > 100 µM | [2] > 100 µM | [3] > 100 µM | [4] > 100 µM | [5] > 100 µM | [6] > 100 µM | [7] > 100 µM | [8] > 100 µM | [9] > 100 µM

CN(C)CCC1(C2=CCCC2)CC/C(=C\c2ccc3c(c2)OCO3)C1=O (centres undefined)
inactive: [1] 17.1 µM | [2] 14.8 µM | [4] 13.6 µM | [5] 14.2 µM | [6] 12.9 µM | [7] 15.2 µM | [8] 16.8 µM

COc1ccccc1NC(=O)CSC(N)=O
inactive: [1] 42.1 µM | [2] 46.2 µM | [3] 34.4 µM | [4] 82.8 µM | [5] > 100 µM | [8] 50.4 µM | [9] 30.8 µM

Cc1ccc2nc(/C(=C/c3ccc(/C=C(\NC(=O)c4ccccc4)c4nc5ccc(C)cc5[nH]4)c(C)c3)NC(=O)c3ccccc3)[nH]c2c1
inactive: [1] 3.02 µM | [2] 7.57 µM | [3] 22.6 µM | [5] 20.3 µM | [6] 1.5 µM | [7] 19.2 µM | [8] 23.1 µM | [9] 3.76 µM

COC(=O)c1sc(C(=O)OC)c2c1C[S+]([O-])C2
inactive: [1] > 100 µM | [2] > 100 µM | [3] > 100 µM | [4] > 100 µM | [5] > 100 µM | [6] > 100 µM | [7] > 100 µM | [8] > 100 µM | [9] 38.7 µM

O=C1N[C@@H]2CCCC[C@@H]2C12CCCCC2
inactive: [1] > 100 µM | [4] > 100 µM | [5] > 100 µM | [6] > 100 µM | [7] > 100 µM | [8] > 100 µM | [9] > 100 µM

C#CCC[C@@H]1O[C@@]1(C)CC/C=C(\C)CC/C=C/C=O
inactive: [2] 14.6 µM | [3] 20 µM | [5] 36.4 µM | [6] 20.1 µM | [8] 25.3 µM | [9] 24.2 µM

CCN(CC)c1ccc(/N=N\c2ccc(-c3nc4ccc[n+](C)c4s3)cc2)cc1
inactive: [3] 3.65 µM | [4] 16.7 µM | [5] 6.78 µM | [6] 3.24 µM | [8] 4.37 µM

Cn1c(=O)c2nc3c4ccccc4c(=O)n(C)c3nc2n(C)c1=O
inactive: [2] > 100 µM | [5] > 100 µM | [6] > 100 µM | [8] > 100 µM
